In PubChem BioAssay (NCI):
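Five compound concentrations were applied to cells in 96-well plates for 48 hours; endpoints were derived by simple linear interpolation of the resulting dose-response curve. Here, GI50 denotes the concentration required for 50% inhibition of growth. TGI: concentration producing complete growth inhibition.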

What was measured:
Assay in all cases: NCI-60 cell line screen, 48 h
M14 melanoma = tested on: M14 melanoma
K-562 leukemia = tested on: K-562 leukemia
HL-60(TB) leukemia = tested on: HL-60(TB) leukemia
SF-295 CNS = tested on: SF-295 CNS
MOLT-4 leukemia = tested on: MOLT-4 leukemia
DMS 114 small cell lung = tested on: DMS 114 small cell lung
DMS 273 small cell lung = tested on: DMS 273 small cell lung
HS 578T breast = tested on: HS 578T breast
PC-3 prostate = tested on: PC-3 prostate
MDA-MB-435 = tested on: MDA-MB-435

SMILES	TGI (M14 melanoma) [µM]	TGI (K-562 leukemia) [µM]	TGI (HL-60(TB) leukemia) [µM]	TGI (SF-295 CNS) [µM]	TGI (MOLT-4 leukemia) [µM]	TGI (DMS 114 small cell lung) [µM]	TGI (DMS 273 small cell lung) [µM]	GI50 (M14 melanoma) [nM]	GI50 (K-562 leukemia) [nM]	GI50 (HL-60(TB) leukemia) [nM]	GI50 (HS 578T breast) [nM]	TGI (HS 578T breast) [µM]	GI50 (SF-295 CNS) [µM]	GI50 (MOLT-4 leukemia) [nM]	GI50 (PC-3 prostate) [nM]	TGI (PC-3 prostate) [µM]	GI50 (MDA-MB-435) [nM]	TGI (MDA-MB-435) [nM]
O=C(CC/C(CC(=O)c1ccc(Cl)cc1)=N/O)Nc1ccc(Cl)c(Cl)c1	> 100	> 100	> 100	> 100	> 100	> 100	> 100	–	–	–	–	–	–	–	–	–	–	–
N#CCCN(CCC#N)c1ccc(/C=N\c2nc(-c3ccccc3)cs2)cc1	> 100	> 100	> 100	> 100	> 100	> 100	> 100	–	–	–	–	–	–	–	–	–	–	–
N#CCc1ccc(/C(C#N)=C2/OC(=N)C(c3ccc(CC#N)cc3)C2=O)cc1 (stereo not drawn)	> 100	> 100	> 100	> 100	> 100	> 100	> 100	–	–	–	–	–	–	–	–	–	–	–
Cc1ccc(-c2nc3c(C(=O)NCCN(C)C)cccc3[nH]2)cc1	29.2	50.5	34.2	53.7	18.5	26.6	27.1	–	–	–	–	–	–	–	–	–	–	–
COC(=O)c1c(C)cc2c(c1O)C1(O)C(=O)c3cc4c(c(O)c3C(=O)C1(OC)C(O)C2)C(=O)C=C(NC1OC(C)C(OC)C(O)C1OC)C4=O (stereo not drawn)	0.262	0.178	0.184	0.146	0.13	0.0295	0.468	–	–	–	–	–	–	–	–	–	–	–
O=C(Nc1ccc([N+](=O)[O-])cc1C(=O)O)c1ccc([N+](=O)[O-])cc1	> 100	32.3	56.7	> 100	31.4	50.7	> 100	–	–	–	–	–	–	–	–	–	–	–
COCOCc1cc(OCc2ccccc2)c(OC)cc1Br	–	> 100	–	> 100	–	–	> 100	–	–	–	–	–	–	–	–	–	–	–
O=C1Cc2ccccc2N1c1c(Cl)cccc1Cl	> 100	> 100	50.8	> 100	98.1	95.4	–	–	–	–	–	–	–	–	–	–	–	–
Cc1cc(Cl)ccc1NC(=O)CC1SC(N)=NC1=O (stereo not drawn)	> 100	> 100	> 100	> 100	> 100	> 100	> 100	–	–	–	–	–	–	–	–	–	–	–
O=C1CCCC(=O)C1=C(O)CCCCCCCCCCc1ccccc1	> 100	> 100	35.1	> 100	> 100	53.4	> 100	–	–	–	–	–	–	–	–	–	–	–
CCOC(=O)N[C@H]1CCc2cc(O)c(OC)c(OC)c2-c2ccc(SC)c(=O)cc21	51.5	> 100	–	0.0995	> 100	0.473	> 100	–	–	–	–	–	–	–	–	–	–	–
CN(C)CC(C)(C)C(/C=C/c1ccccc1)=N\Nc1ccccc1	20.3	0.828	7.49	0.907	17.3	21.8	11.2	–	–	–	–	–	–	–	–	–	–	–
Cn1cnc([N+](=O)[O-])c1SC1=NCCS1	> 100	> 100	–	> 100	> 100	–	> 100	–	–	–	–	–	–	–	–	–	–	–
CCN(CC)CCC(=O)N1CCc2c([nH]c3ccccc23)C1c1cccnc1 (stereo not drawn)	> 100	> 100	> 100	> 100	> 100	> 100	> 100	–	–	–	–	–	–	–	–	–	–	–
Oc1ccc2c3c1OC1C(=NN=C4CCC5(O)C6Cc7ccc(O)c8c7C5(CCN6CC5CC5)C4O8)CCC4(O)C(C2)N(CC2CC2)CCC314 (stereo not drawn)	33.4	48.2	39.8	32.6	> 74	44.6	63.9	–	–	–	–	–	–	–	–	–	–	–
C=C(C)[C@@H]1CC[C@]2(C(=O)O)CC[C@]3(C)[C@H](CC[C@@H]4[C@@]5(C)C[C@@H](CC#Cc6ccc(Br)cc6)C(=O)C(C)(C)[C@@H]5CC[C@]43C)[C@@H]12	12.2	> 100	> 100	81.1	> 100	–	–	2670	15600	22400	6260	> 100	12.6	4440	3310	15.2	4940	> 100000
CNc1cccnc1/C=N/NC(N)=S	3.94	> 10	> 6.25	5.71	> 10	–	–	–	–	–	–	> 10	–	–	–	> 10	–	> 10000
COc1ccc2c(c1)C(=O)/C(=C/c1ccc([N+](=O)[O-])s1)O2	1.31	12.2	> 26.1	9.61	> 33.7	–	–	358	291	713	269	–	2.95	867	283	–	314	1760
Cn1cnc([N+](=O)[O-])c1Sc1nc2cccnc2s1	26.8	–	–	> 100	23.6	28.5	57.4	–	–	–	–	–	–	–	–	–	–	–
COc1cc(OC)c2cc(C(=O)O)c(=O)oc2c1	> 100	> 100	> 100	> 100	> 100	–	–	> 100000	> 100000	> 100000	–	> 51.4	42.2	> 100000	> 100000	> 100	> 100000	> 100000
CS(=O)(=O)Nc1cccc(-c2ccc3c(NC(=O)C4CC4)n[nH]c3c2)c1	> 25	> 25	10.8	> 25	> 25	–	–	2330	776	1730	2220	> 25	5.65	6270	3240	> 25	165	944
CC(C)=CCc1ccc(O)c(=O)cc1C(C)C	3.95	> 100	8.72	> 36.9	> 100	–	–	680	466	624	48100	> 100	0.939	394	1130	> 100	814	> 100000
C#C[C@@]1(O)CCCC2=CC(=O)C[C@]21C	> 100	> 100	> 100	> 100	> 100	> 100	–	–	–	–	–	–	–	–	–	–	–	–
COc1cc2c(cc1OCCCCCn1c(-c3ccco3)nc3ccccc31)N=C[C@@H]1CCCN1C2=O	0.0236	> 100	0.114	0.0227	–	–	–	< 10	< 10	23	< 10	< 0.0349	< 0.01	< 10	< 10	> 100	< 10	< 10
